Reference: publication PMC6271530, “Design and Optimisation of Bioactive Cyclic Peptides: Generation of a Down-Regulator of TNF Secretion” (Molecules, 2014)
Entries after “also recorded” stand apart in the source; their conditions may differ.

Columns and labels:
[1] = tested on: CTB-stimulated J774A.1 cells; type: cell-based, murine
[2] = tested on: LPS-stimulated J774A.1 cells; experiment: TNF secretion by LPS-stimulated J774A.1 cells; type: cell-based, murine; conditions: for Change in level of secretion of TNF into the supernatant: LPS-stimulated J774A.1 cells, overnight exposure to cyclic peptide, TNF by sandwich ELISA, very high levels of TNF generated
[3] = tested on: cytokine activated T-cells (Tck) co-cultured with monocytes; experiment: IL-1 levels in the cognate model; type: cell-based, human
Experimental: (§1) A methodology described by Brennan et al. was employed. Peripheral blood lymphocytes (>95%) are enriched by Centrifugal Elutriation from plateletphoresis blood cones. CD45RO^+ Tcells (>98% purity) isolated by negative selection (Miltenyi, Bisley, UK) are re-suspended to a density of 1 × 10^6 cells/mL in RPMI 1640 containing 10% heat-inactivated AB^+ Human Serum. Cytokines are added to the cells at the following concentrations, hIL-2 @25 ng/mL, hIL-6 @100 ng/mL and hTNFα @25 ng/mL, all purchased from Peprotech UK (London, UK). The cells are incubated at 37 °C, 5% CO2 for 8 d after which they are pelleted twice at 1500 rpm for 5 min, counted and then used in a cognate experiment.
(§2) A methodology described by Brennan et al. is employed as follows. Elutriation-enriched (>95%) autologous monocytes are cultured at 1 × 10^6 cells/mL (100 microlitres) in RPMI 1640 containing 5% heat-inactivated FCS, in a 96-well, round-bottomed culture plate. After adjusting the cell number, cytokine activated T-cells (Tck) are added to the monocytes at a 5:1 ratio, the peptides are then added into the appropriate wells, with a final volume of 200 μL/well. Cells are co-cultured at 37 °C, 5% CO2 for 18 h after which the supernatants are removed and assayed for cytokine production by ELISA.

[4] = Light scattering / homogeneity of the peptide preparation in aqueous medium; type: physicochemical; conditions: peptide dissolved in HFIP or transcutol in the presence of β-hydroxypropyl cyclodextrin, then aqueous medium; all levels of cyclodextrin employed
Excerpt: In order to avoid problems with aggregation, which, it was feared, may affect the long-term stability of the product, a number of methodologies were employed to disperse the peptide prior to introduction into aqueous medium. Dissolution in HFIP, followed by drying down and addition of water worked reasonably well, as did dissolving in transcutol at high concentration, then adding to water. […] Detailed methodology is given in the Experimental section.

lymphocytes = experiment: TNF secretion by lymphocytes; type: cell-based; conditions: evidence to be presented separately
[5] = tested on: cytokine activated T-cells (Tck) co-cultured with monocytes; experiment: IL-6 secretion in the cognate assay; type: cell-based, human; conditions: cognate model; 10 and 1 μg/mL peptide, relative to corresponding vehicle controls; formulated with cyclodextrin in the absence of transcutol
Experimental: as §1, §2

[6] = tested on: cells of the cytokine secretion experiments (replicates of each group); experiment: MTT viability assay; type: cell-based; conditions: MTT 4 h at 37 °C, read at 620 nm
Experimental: After removal of the supernatants 100 μL of RPMI 1640 is added to each well of the plate. 10 μL of MTT dye (stock 5 mg/mL) is added to each well and incubated for 4 h at 37 °C 5% CO2, the MTT crystals are dissolved with SDS after which the plates are read at 620 nm.

[7] = tested on: cytokine activated T-cells (Tck) co-cultured with monocytes; experiment: TNF secretion in T cell/monocyte co-culture (cognate assay); type: cell-based, human
Experimental: as §1, §2

[8] = tested on: LPS-stimulated J774A.1 cells; experiment: IL-6 secretion by LPS-stimulated J774A.1 cells; type: cell-based, murine; conditions: different concentrations, formulated with cyclodextrin in the absence of transcutol
[9] = tested on: cytokine activated T-cells (Tck) co-cultured with monocytes; experiment: IL-10 levels in the cognate model; type: cell-based, human
Experimental: as §1, §2

cyclo(-DF-R-Nle-S-DF-R-Nle-S-) [Lex 2.3]
Change in level of secretion of TNF into the supernatant [1]: insufficient

cyclo(-DF-R-Σ-S-DF-R-Σ-S-) [Lex 2.1]
Change in level of secretion of TNF into the supernatant [1]: efficacy in terms of down-regulating the secretion of TNF

cyclo(-DF-S-Nle-R-DF-S-Nle-R-) [Lex 2.4]
Change in level of secretion of TNF into the supernatant [1]: insufficient

cyclo(-DF-S-Σ-R-DF-S-Σ-R-) [Lex 2.2]
Change in level of secretion of TNF into the supernatant [1]: efficacy in terms of down-regulating the secretion of TNF; also recorded: more efficacious

cyclo(DF-R-LC10-S-DF-R-LC10-S) [Lex 2.5]
Change in level of secretion of TNF into the supernatant [2]: strongly dose-related stimulatory activity

cyclo(DF-S-LC10-R-DF-S-LC10-R) [Lex 2.6]
Effect on levels of IL-1 [3]: No effect
Light scattering of the preparation (homogeneity) [4]: significant reduction in light scattering
Effect on TNF secretion by lymphocytes (lymphocytes): no effect on secretion by lymphocytes
Dependence of TNF down-regulating activity on cyclodextrin:peptide ratio ([2]; LPS-stimulated J774A.1 cells overnight, formulated with beta hydroxypropyl cyclodextrin at different weight ratios, down to 1.25 (molar ratio 1.3)): independent of the ratio of peptide to cyclodextrin
Change in level of secretion of TNF into the supernatant [2]: most efficacious structure tested; also recorded: inhibits secretion of TNF
Effect on IL-6 secretion [5]: reductions in IL-6 secretion
Cell metabolic activity (MTT test) [6]: no reduction in cell metabolic activity
Change in level of secretion of TNF into the supernatant [1]: inhibits secretion of TNF
Effect on TNF secretion of cells in the cognate assay ([7]; 10 µg/mL, formulated with cyclodextrin in the presence of transcutol (panel a), 18 h co-culture, ELISA): inhibitory activity is seen clearly
Inhibition of TNF secretion elicited by modified T-cell phenotype ([7]; summary statement): inhibits secretion of TNF
Effect on IL-6 secretion [8]: Clear dose-related inhibition of IL-6 secretion
Effect on levels of IL-10 [9]: No effect
